In patent US12692255B2, “Adenosine 2A receptor modulators for use in the treatment of cancer” (UNIVERSITE DE GENEVE, priority 2022, dated 2026):
Where two headings read alike, the source gives them in different places.

Columns and labels:
[1] = test system: pCREB in gated human CD4+ cells; test: Intracellular pCREB by flow cytometry in NECA-treated PBMCs, gated CD4+ T cells; assay type: cell-based; conditions: read-out: Activity (reduction of pCREB, restoration to normal physiological levels)
Description: (§1) Human peripheral blood mononuclear cells (PBMCs) were isolated using density centrifugation from fresh whole blood of healthy human blood donors. Cells were cryopreserved and thawed and rested for several hours in complete cell culture media containing human albumin and antibiotics (penicillin and streptomycin; 100 units or mg per ml respectively). […] DMSO was used as the storage diluent for concentrated A2AR antagonists. NECA and DMSO controls (% v/v) were also tested in parallel to the therapeutic candidates. After the indicated incubation time with NECA, cells were either stained to determine their intracellular level of pCREB, or activated with Dynabeads overnight before staining for intracellular cytokines, as described below.
(§2) PBMCs that were cultured with A2AR antagonists in the presence of NECA and were subsequently fixed and permeabilized using ice cold paraformaldehyde and methanol-based kit reagents (ThermoFisher and Miltenyi, respectively). […] Stained cells were acquired using a Fortessa flow cytometer (BD). Gating of the desired cell subsets was performed using FSC-A vs FSC—H to remove doublet cells, FSC vs SSC parameters to identify cells with lymphocyte-like morphology, followed by CD3^+ T cell and CD4^+ or CD8^+ sub-gating. The fold change in mean fluorescence intensity (MFI) of intracellular pCREB in gated CD4 or CD8^+ T cells was calculated using NECA-only conditions, and divided by NECA and A2AR antagonist-cultured cells from the same donor. The overall activity of the tested compounds was calculated using the average of at least 3 donors.
(§3) Compounds of the invention were tested in physiological conditions using healthy human peripheral blood mononuclear cells as well as in the presence of human albumin to increase the physiological relevance of the assay. […] The activity scale represented is the average for at least 3 donors, compared to the NECA-only control.

[2] = test system: pCREB in gated human CD8+ cells; test: Intracellular pCREB by flow cytometry in NECA-treated PBMCs, gated CD8+ T cells; assay type: cell-based; conditions: read-out: Activity (reduction of pCREB, restoration to normal physiological levels)
Description: as §1, §2, §3

A2AR = A2AR (Homo sapiens, UniProt P29274); test: cAMP biosensor antagonist potency assay in CHO cells expressing recombinant A2AR
Chain of A2AR (P29274 whole entry): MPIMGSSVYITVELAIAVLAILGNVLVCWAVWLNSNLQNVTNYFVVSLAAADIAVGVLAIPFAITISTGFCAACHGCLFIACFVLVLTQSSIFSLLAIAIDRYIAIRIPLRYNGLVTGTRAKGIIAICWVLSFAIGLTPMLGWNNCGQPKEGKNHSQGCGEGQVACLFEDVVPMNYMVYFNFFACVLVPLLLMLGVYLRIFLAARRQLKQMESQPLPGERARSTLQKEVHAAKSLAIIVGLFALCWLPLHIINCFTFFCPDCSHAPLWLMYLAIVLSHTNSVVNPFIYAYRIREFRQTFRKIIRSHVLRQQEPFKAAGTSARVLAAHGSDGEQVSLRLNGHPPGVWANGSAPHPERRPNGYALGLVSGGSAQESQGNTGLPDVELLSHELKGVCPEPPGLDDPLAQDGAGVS
Description: Chinese Hamster Ovary (CHO) cells containing an in-house cAMP-based biosensor, described below, and expressing recombinant A2AR were used to characterize the potency of A2AR antagonists according to the invention. The biosensor contains a cAMP binding domain allowing the measurement of Gs and Gi-coupled receptors activation. Cells were treated in a 384 well plate with the indicated concentrations of A2AR antagonists, followed by the addition of an A2AR agonist, adenosine. cAMP levels were measured on a luminescent/fluorescent plate reader.
CHO cells expressing A2AR and the biosensor were seeded in a black 384-well plate (Nunc) and grown at 37° C. and 5% CO2 overnight. […] The cAMP biosensor allowed real-time monitoring of signals using an FDSS/μCELL (Hamamatsu). The assay was conducted in 1× Hanks Balanced Salt Solution (HBSS). The total volume of the reaction was 80 μl (45 μl of cells, 15 μl of antagonist and 20 μl of agonist). Data analysis was performed using GraphPad Prism.

[3] = compound at 1 μM, 5 µM NECA, gated human CD4+ cells, average of at least 3 donors vs NECA-only control
[4] = compound at 1 μM, 5 µM NECA, gated human CD8+ cells, average of at least 3 donors vs NECA-only control

Structure (SMILES)	IC50 (A2AR)	inhibition at 1 µM [1, 3]	inhibition at 1 µM [2, 4]	inhibition at 1 µM ([1]; Homo sapiens)	inhibition at 1 µM ([2]; Homo sapiens)
Cc1ccc(-c2nc(N)nc3c2nnn3Cc2cccc(CO[C@H]3CCOC3)n2)o1 [Ciforadenant, 7-(5-methylfuran-2-yl)-3-[[6-[[(3S)-oxolan-3-yl]oxymethyl]pyridin-2-yl]methyl]triazolo[4,5-d]pyrimidin-5-amine, reference compound]		70 to 90%	70 to 90%		
N#Cc1c(N)nc(N2CCCCC2)c(C#N)c1-c1cccc(-c2ccccc2)c1 [Compound 3, 4-([1,1′-biphenyl]-3-yl)-2-amino-6-(piperidin-1-yl)pyridine-3,5-dicarbonitrile]				> 90%	> 90%
N#Cc1c(N)nc(N2CCCCC2)c(C#N)c1-c1cccc(-c2ccccc2F)c1 [Compound 4, 2-amino-4-(2′-fluoro-[1,1′-biphenyl]-3-yl)-6-(piperidin-1-yl)pyridine-3,5-dicarbonitrile]				> 90%	> 90%
N#Cc1c(N)nc(N2CCCCC2)c(C#N)c1-c1cccc(-c2ncccc2F)c1 [Compound 24, 2-amino-4-(3-(3-fluoropyridin-2-yl)phenyl)-6-(piperidin-1-yl)pyridine-3,5-dicarbonitrile]	< 200 nM	70 to 90%	40 to 70%		
N#Cc1c(N)nc(N2CCCCC2)c(C#N)c1-c1cccc(-c2cc(F)ccn2)c1 [Compound 26, 2-amino-4-(3-(4-fluoropyridin-2-yl)phenyl)-6-(piperidin-1-yl)pyridine-3,5-dicarbonitrile]	200 to 1000 nM				
N#Cc1c(N)nc(N2CCCCC2)c(C#N)c1-c1cc(-c2cccnc2)ccc1F [Compound 29, 2-amino-4-(2-fluoro-5-(pyridin-3-yl)phenyl)-6-(piperidin-1-yl)pyridine-3,5-dicarbonitrile]	< 200 nM				
N#Cc1c(N)nc(N2CCCCC2)c(C#N)c1-c1cccc(-c2cccnc2)c1F [Compound 30, 2-amino-4-(2-fluoro-3-(pyridin-3-yl)phenyl)-6-(piperidin-1-yl)pyridine-3,5-dicarbonitrile]	< 200 nM	40 to 70%	0 to 40%		
N#Cc1c(N)nc(N2CCCCC2)c(C#N)c1-c1cc(F)cc(-c2cccnc2)c1 [Compound 31, 2-amino-4-(3-fluoro-5-(pyridin-3-yl)phenyl)-6-(piperidin-1-yl)pyridine-3,5-dicarbonitrile]	< 200 nM	40 to 70%	0 to 40%		
Cc1c(C#N)cccc1-c1cc(-c2cn(Cc3cccc(C(C)(C)O)n3)nn2)nc(N)n1 [Etrumadenant, 3-[2-Amino-6-[1-[[6-(2-hydroxypropan-2-yl)pyridin-2-yl]methyl]triazol-4-yl]pyrimidin-4-yl]-2-methylbenzonitrile, reference compound]		> 90%	> 90%		
Cc1cc(-c2nnc(N)nc2-c2ccc(F)cc2)cc(Cl)n1 [Imaradenant, 6-(2-chloro-6-methylpyridin-4-yl)-5-(4-fluorophenyl)-1,2,4-triazin-3-amine, reference compound]		40 to 70%	40 to 70%		
COCCOc1ccc(N2CCN(CCn3ncc4c3nc(N)n3nc(-c5ccco5)nc43)CC2)cc1 [Preladenant, 4-(furan-2-yl)-10-[2-[4-[4-(2-methoxyethoxy)phenyl]piperazin-1-yl]ethyl]-3,5,6,8,10,11-hexazatricyclo[7.3.0.0^2,6]dodeca-1(9),2,4,7,11-pentaen-7-amine, reference compound]		70 to 90%	70 to 90%		
Nc1nc(-n2cccn2)nc(-n2cccn2)c1Br [Taminadenant, 5-bromo-2,6-di(pyrazol-1-yl)pyrimidin-4-amine, reference compound]		0 to 40%	0 to 40%		

More lines, main results first:

IC50 (A2AR)	Structure (SMILES)	inhibition at 1 µM [1, 3]	inhibition at 1 µM [2, 4]	inhibition at 1 µM ([1]; Homo sapiens)	inhibition at 1 µM ([2]; Homo sapiens)
200 to 1000 nM	N#Cc1c(N)nc(N2CCOCC2)c(C#N)c1-c1cccc(-c2ccccc2)c1 [Compound 18, 4-([1,1′-biphenyl]-3-yl)-2-amino-6-morpholinopyridine-3,5-dicarbonitrile]				
200 to 1000 nM	COc1nc(N)c(C#N)c(-c2cccc(-c3ccccc3)c2)c1C#N [Compound 21, 4-([1,1′-biphenyl]-3-yl)-2-amino-6-methoxypyridine-3,5-dicarbonitrile]				
< 200 nM	CCOc1nc(N)c(C#N)c(-c2cccc(-c3ccccc3)c2)c1C#N [Compound 22, 4-([1,1′-biphenyl]-3-yl)-2-amino-6-ethoxypyridine-3,5-dicarbonitrile]				
< 200 nM	N#Cc1c(N)nc(N2CCCCC2)c(C#N)c1-c1cccc(-c2cccc(F)n2)c1 [Compound 25, 2-amino-4-(3-(6-fluoropyridin-2-yl)phenyl)-6-(piperidin-1-yl)pyridine-3,5-dicarbonitrile]				
200 to 1000 nM	N#Cc1c(N)nc(N2CCCCC2)c(C#N)c1-c1cccc(-c2cncc(F)c2)c1 [Compound 27, 2-amino-4-(3-(5-fluoropyridin-3-yl)phenyl)-6-(piperidin-1-yl)pyridine-3,5-dicarbonitrile]				
< 200 nM	N#Cc1c(N)nc(N2CCCCC2)c(C#N)c1-c1cccc(-c2cccnc2F)c1 [Compound 28, 2-amino-4-(3-(2-fluoropyridin-3-yl)phenyl)-6-(piperidin-1-yl)pyridine-3,5-dicarbonitrile]	> 90%	70 to 90%		
